ChEMBL document CHEMBL1649134, “Occurrence of efflux mechanism and cephalosporinase variant in a population of Enterobacter aerogenes and Klebsiella pneumoniae isolates producing extended-spectrum beta-lactamases” (2009)
In brackets after ≈: the same amount, converted by molar mass.

Assays:
Assay type in all cases: functional
Klebsiella pneumoniae [1] = assay: Antimicrobial activity against multidrug resistant Klebsiella pneumoniae isolate 15 by broth dilution method
Klebsiella aerogenes [2] = assay: Antimicrobial activity against multidrug resistant Enterobacter aerogenes isolate 21 by broth dilution method
Klebsiella pneumoniae [3] = assay: Antimicrobial activity against multidrug resistant Klebsiella pneumoniae isolate 4 by broth dilution method
Klebsiella aerogenes [4] = assay: Antimicrobial activity against multidrug resistant Enterobacter aerogenes isolate 18 by broth dilution method in presence of 26.3 mg/L efflux pump inhibitor phenylalanine-arginine-beta-naphthylamide
Klebsiella aerogenes [5] = assay: Antimicrobial activity against multidrug resistant Enterobacter aerogenes isolate 12 by broth dilution method in presence of 26.3 mg/L efflux pump inhibitor phenylalanine-arginine-beta-naphthylamide
Klebsiella pneumoniae [6] = assay: Antimicrobial activity against multidrug resistant Klebsiella pneumoniae isolate 5 by broth dilution method in presence of 26.3 mg/L efflux pump inhibitor phenylalanine-arginine-beta-naphthylamide
Klebsiella pneumoniae [7] = assay: Antimicrobial activity against multidrug resistant Klebsiella pneumoniae isolate 1 by broth dilution method
Klebsiella pneumoniae [8] = assay: Antimicrobial activity against multidrug resistant Klebsiella pneumoniae isolate 14 by broth dilution method in presence of 26.3 mg/L efflux pump inhibitor phenylalanine-arginine-beta-naphthylamide
Klebsiella pneumoniae [9] = assay: Antimicrobial activity against multidrug resistant Klebsiella pneumoniae ATCC 11296 by broth dilution method in presence of 26.3 mg/L efflux pump inhibitor phenylalanine-arginine-beta-naphthylamide
Klebsiella pneumoniae [10] = assay: Antimicrobial activity against multidrug resistant Klebsiella pneumoniae isolate 3 by broth dilution method in presence of 26.3 mg/L efflux pump inhibitor phenylalanine-arginine-beta-naphthylamide
Klebsiella pneumoniae [11] = assay: Antimicrobial activity against multidrug resistant Klebsiella pneumoniae isolate 7 by broth dilution method in presence of 26.3 mg/L efflux pump inhibitor phenylalanine-arginine-beta-naphthylamide
Klebsiella pneumoniae [12] = assay: Antimicrobial activity against multidrug resistant Klebsiella pneumoniae isolate 11 by broth dilution method in presence of 26.3 mg/L efflux pump inhibitor phenylalanine-arginine-beta-naphthylamide
Klebsiella aerogenes [13] = assay: Antimicrobial activity against multidrug resistant Enterobacter aerogenes isolate 3 by broth dilution method
Klebsiella pneumoniae [14] = assay: Antimicrobial activity against multidrug resistant Klebsiella pneumoniae isolate 10 by broth dilution method in presence of 26.3 mg/L efflux pump inhibitor phenylalanine-arginine-beta-naphthylamide
Klebsiella aerogenes [15] = assay: Antimicrobial activity against multidrug resistant Enterobacter aerogenes isolate 10 by broth dilution method
Klebsiella pneumoniae [16] = assay: Antimicrobial activity against multidrug resistant Klebsiella pneumoniae isolate 13 by broth dilution method in presence of 26.3 mg/L efflux pump inhibitor phenylalanine-arginine-beta-naphthylamide
Klebsiella pneumoniae [17] = assay: Antimicrobial activity against multidrug resistant Klebsiella pneumoniae isolate 8 by broth dilution method in presence of 26.3 mg/L efflux pump inhibitor phenylalanine-arginine-beta-naphthylamide
Klebsiella aerogenes [18] = assay: Antimicrobial activity against multidrug resistant Enterobacter aerogenes ATCC 15038 by broth dilution method in presence of 26.3 mg/L efflux pump inhibitor phenylalanine-arginine-beta-naphthylamide
Klebsiella aerogenes [19] = assay: Antimicrobial activity against multidrug resistant Enterobacter aerogenes isolate 3 by broth dilution method in presence of 26.3 mg/L efflux pump inhibitor phenylalanine-arginine-beta-naphthylamide
Klebsiella pneumoniae [20] = assay: Antimicrobial activity against multidrug resistant Klebsiella pneumoniae isolate 2 by broth dilution method
Klebsiella aerogenes [21] = assay: Antimicrobial activity against multidrug resistant Enterobacter aerogenes isolate 14 by broth dilution method in presence of 26.3 mg/L efflux pump inhibitor phenylalanine-arginine-beta-naphthylamide
Klebsiella aerogenes [22] = assay: Antimicrobial activity against multidrug resistant Enterobacter aerogenes isolate 6 by broth dilution method
Klebsiella pneumoniae [23] = assay: Antimicrobial activity against multidrug resistant Klebsiella pneumoniae isolate 9 by broth dilution method in presence of 26.3 mg/L efflux pump inhibitor phenylalanine-arginine-beta-naphthylamide
Klebsiella aerogenes [24] = assay: Antimicrobial activity against multidrug resistant Enterobacter aerogenes isolate 15 by broth dilution method
Klebsiella pneumoniae [25] = assay: Antimicrobial activity against multidrug resistant Klebsiella pneumoniae isolate 13 by broth dilution method
Klebsiella pneumoniae [26] = assay: Antimicrobial activity against multidrug resistant Klebsiella pneumoniae isolate 5 by broth dilution method
Klebsiella pneumoniae [27] = assay: Antimicrobial activity against multidrug resistant Klebsiella pneumoniae isolate 2 by broth dilution method in presence of 26.3 mg/L efflux pump inhibitor phenylalanine-arginine-beta-naphthylamide
Klebsiella pneumoniae [28] = assay: Antimicrobial activity against multidrug resistant Klebsiella pneumoniae isolate 11 by broth dilution method
Klebsiella aerogenes [29] = assay: Antimicrobial activity against multidrug resistant Enterobacter aerogenes isolate 13 by broth dilution method
Klebsiella pneumoniae [30] = assay: Antimicrobial activity against multidrug resistant Klebsiella pneumoniae isolate 4 by broth dilution method in presence of 26.3 mg/L efflux pump inhibitor phenylalanine-arginine-beta-naphthylamide
Klebsiella aerogenes [31] = assay: Antimicrobial activity against multidrug resistant Enterobacter aerogenes isolate 16 by broth dilution method in presence of 26.3 mg/L efflux pump inhibitor phenylalanine-arginine-beta-naphthylamide
Klebsiella pneumoniae [32] = assay: Antimicrobial activity against multidrug resistant Klebsiella pneumoniae isolate 10 by broth dilution method
Klebsiella aerogenes [33] = assay: Antimicrobial activity against multidrug resistant Enterobacter aerogenes isolate 24 by broth dilution method
Klebsiella aerogenes [34] = assay: Antimicrobial activity against multidrug resistant Enterobacter aerogenes isolate 25 by broth dilution method in presence of 26.3 mg/L efflux pump inhibitor phenylalanine-arginine-beta-naphthylamide
Klebsiella aerogenes [35] = assay: Antimicrobial activity against multidrug resistant Enterobacter aerogenes isolate 5 by broth dilution method
Klebsiella aerogenes [36] = assay: Antimicrobial activity against multidrug resistant Enterobacter aerogenes isolate 17 by broth dilution method in presence of 26.3 mg/L efflux pump inhibitor phenylalanine-arginine-beta-naphthylamide
Klebsiella aerogenes [37] = assay: Antimicrobial activity against multidrug resistant Enterobacter aerogenes isolate 20 by broth dilution method in presence of 26.3 mg/L efflux pump inhibitor phenylalanine-arginine-beta-naphthylamide
Klebsiella aerogenes [38] = assay: Antimicrobial activity against multidrug resistant Enterobacter aerogenes ATCC 15038 by broth dilution method
Klebsiella aerogenes [39] = assay: Antimicrobial activity against multidrug resistant Enterobacter aerogenes isolate 21 by broth dilution method in presence of 26.3 mg/L efflux pump inhibitor phenylalanine-arginine-beta-naphthylamide
Klebsiella pneumoniae [40] = assay: Antimicrobial activity against multidrug resistant Klebsiella pneumoniae isolate 14 by broth dilution method

Compound	MIC (Klebsiella pneumoniae [1]) [µg/mL]	MIC (Klebsiella aerogenes [2]) [µg/mL]	MIC (Klebsiella pneumoniae [3]) [µg/mL]	MIC (Klebsiella aerogenes [4]) [µg/mL]	MIC (Klebsiella aerogenes [5]) [µg/mL]	MIC (Klebsiella pneumoniae [6]) [µg/mL]	MIC (Klebsiella pneumoniae [7]) [µg/mL]	MIC (Klebsiella pneumoniae [8]) [µg/mL]	MIC (Klebsiella pneumoniae [9]) [µg/mL]	MIC (Klebsiella pneumoniae [10]) [µg/mL]	MIC (Klebsiella pneumoniae [11]) [µg/mL]	MIC (Klebsiella pneumoniae [12]) [µg/mL]	MIC (Klebsiella aerogenes [13]) [µg/mL]	MIC (Klebsiella pneumoniae [14]) [µg/mL]	MIC (Klebsiella aerogenes [15]) [µg/mL]	MIC (Klebsiella pneumoniae [16]) [µg/mL]	MIC (Klebsiella pneumoniae [17]) [µg/mL]	MIC (Klebsiella aerogenes [18]) [µg/mL]	MIC (Klebsiella aerogenes [19]) [µg/mL]	MIC (Klebsiella pneumoniae [20]) [µg/mL]	further results
O=C(N[C@H](CO)[C@H](O)c1ccc([N+](=O)[O-])cc1)C(Cl)Cl [CHLORAMPHENICOL]	8 (≈ 24.8 µM)	1020 (≈ 3170 µM)	4 (≈ 12.4 µM)	4	128	2	8 (≈ 24.8 µM)	2	2	4	2	4	1020 (≈ 3170 µM)	2	1020 (≈ 3170 µM)	4	2	1	128	256 (≈ 792 µM)	MIC (Klebsiella aerogenes [21]): 64 µg/mL; MIC (Klebsiella aerogenes [22]): 256 µg/mL (≈ 792 µM); MIC (Klebsiella pneumoniae [23]): 8 µg/mL; MIC (Klebsiella aerogenes [24]): 512 µg/mL (≈ 1580 µM); MIC (Klebsiella pneumoniae [25]): 128 µg/mL (≈ 396 µM); MIC (Klebsiella pneumoniae [26]): 32 µg/mL (≈ 99 µM); MIC (Klebsiella pneumoniae [27]): 64 µg/mL; MIC (Klebsiella pneumoniae [28]): 8 µg/mL (≈ 24.8 µM); MIC (Klebsiella aerogenes [29]): 1020 µg/mL (≈ 3170 µM); MIC (Klebsiella pneumoniae [30]): 2 µg/mL; MIC (Klebsiella aerogenes [31]): 64 µg/mL; MIC (Klebsiella pneumoniae [32]): 4 µg/mL (≈ 12.4 µM); MIC (Klebsiella aerogenes [33]): 512 µg/mL (≈ 1580 µM); MIC (Klebsiella aerogenes [34]): 64 µg/mL; MIC (Klebsiella aerogenes [35]): > 1020 µg/mL; MIC (Klebsiella aerogenes [36]): 64 µg/mL; MIC (Klebsiella aerogenes [37]): 64 µg/mL; MIC (Klebsiella aerogenes [38]): 2 µg/mL (≈ 6.19 µM); MIC (Klebsiella aerogenes [39]): 128 µg/mL
CCn1cc(C(=O)O)c(=O)c2cc(F)c(N3CCNCC3)cc21 [NORFLOXACIN]	256 (≈ 802 µM)	512 (≈ 1600 µM)	128 (≈ 401 µM)	128	512	0.5	2 (≈ 6.26 µM)	0.25	0.125	128	0.25	64	256 (≈ 802 µM)	128	256 (≈ 802 µM)	32	0.25	0.125	256	4 (≈ 12.5 µM)	MIC (Klebsiella aerogenes [21]): 512 µg/mL; MIC (Klebsiella aerogenes [22]): 64 µg/mL (≈ 200 µM); MIC (Klebsiella pneumoniae [23]): ≤ 0.06 µg/mL; MIC (Klebsiella aerogenes [24]): 512 µg/mL (≈ 1600 µM); MIC (Klebsiella pneumoniae [25]): > 256 µg/mL; MIC (Klebsiella pneumoniae [26]): 2 µg/mL (≈ 6.26 µM); MIC (Klebsiella pneumoniae [27]): 2 µg/mL; MIC (Klebsiella pneumoniae [40]): 8 µg/mL (≈ 25.1 µM); MIC (Klebsiella pneumoniae [28]): 64 µg/mL (≈ 200 µM); MIC (Klebsiella aerogenes [29]): 512 µg/mL (≈ 1600 µM); MIC (Klebsiella pneumoniae [30]): 128 µg/mL; MIC (Klebsiella aerogenes [31]): 128 µg/mL; MIC (Klebsiella pneumoniae [32]): 128 µg/mL (≈ 401 µM); MIC (Klebsiella aerogenes [33]): 512 µg/mL (≈ 1600 µM); MIC (Klebsiella aerogenes [34]): 128 µg/mL; MIC (Klebsiella aerogenes [35]): 512 µg/mL (≈ 1600 µM); MIC (Klebsiella aerogenes [36]): 128 µg/mL; MIC (Klebsiella aerogenes [37]): 128 µg/mL; MIC (Klebsiella aerogenes [38]): 0.125 µg/mL (≈ 0.391 µM); MIC (Klebsiella aerogenes [39]): 128 µg/mL
C[C@@H]1CN(c2c(F)c(N)c3c(=O)c(C(=O)O)cn(C4CC4)c3c2F)C[C@H](C)N1 [SPARFLOXACIN]	32 (≈ 81.5 µM)	512 (≈ 1300 µM)	8 (≈ 20.4 µM)	16	8	≤ 0.06	0.25 (≈ 0.637 µM)	≤ 0.06	≤ 0.06	4	≤ 0.06	2	128 (≈ 326 µM)	2	256 (≈ 652 µM)	0.5	≤ 0.06	≤ 0.06	8	2 (≈ 5.1 µM)	MIC (Klebsiella aerogenes [21]): 8 µg/mL; MIC (Klebsiella aerogenes [22]): 0.125 µg/mL (≈ 0.319 µM); MIC (Klebsiella pneumoniae [23]): ≤ 0.06 µg/mL; MIC (Klebsiella aerogenes [24]): 128 µg/mL (≈ 326 µM); MIC (Klebsiella pneumoniae [25]): 2.1 µg/mL (≈ 5.35 µM); MIC (Klebsiella pneumoniae [26]): 0.125 µg/mL (≈ 0.319 µM); MIC (Klebsiella pneumoniae [27]): ≤ 0.06 µg/mL; MIC (Klebsiella pneumoniae [40]): 2 µg/mL (≈ 5.1 µM); MIC (Klebsiella pneumoniae [28]): 8 µg/mL (≈ 20.4 µM); MIC (Klebsiella aerogenes [29]): 256 µg/mL (≈ 652 µM); MIC (Klebsiella pneumoniae [30]): 2 µg/mL; MIC (Klebsiella aerogenes [31]): 8 µg/mL; MIC (Klebsiella pneumoniae [32]): 8 µg/mL (≈ 20.4 µM); MIC (Klebsiella aerogenes [33]): 256 µg/mL (≈ 652 µM); MIC (Klebsiella aerogenes [34]): 8 µg/mL; MIC (Klebsiella aerogenes [35]): 512 µg/mL (≈ 1300 µM); MIC (Klebsiella aerogenes [36]): 16 µg/mL; MIC (Klebsiella aerogenes [37]): 16 µg/mL; MIC (Klebsiella aerogenes [38]): ≤ 0.06 µg/mL; MIC (Klebsiella aerogenes [39]): 32 µg/mL
CN(C)[C@@H]1C(O)=C(C(N)=O)C(=O)[C@@]2(O)C(O)=C3C(=O)c4c(O)cccc4[C@@](C)(O)[C@H]3C[C@@H]12 [TETRACYCLINE]	2 (≈ 4.5 µM)	128 (≈ 288 µM)	2 (≈ 4.5 µM)	4	16	128	8 (≈ 18 µM)	256	1	256	128	4	128 (≈ 288 µM)	256	128 (≈ 288 µM)	128	128	0.5	8	64 (≈ 144 µM)	MIC (Klebsiella aerogenes [21]): 16 µg/mL; MIC (Klebsiella aerogenes [22]): 4 µg/mL (≈ 9 µM); MIC (Klebsiella pneumoniae [23]): 128 µg/mL; MIC (Klebsiella aerogenes [24]): 64 µg/mL (≈ 144 µM); MIC (Klebsiella pneumoniae [25]): 4 µg/mL (≈ 9 µM); MIC (Klebsiella pneumoniae [26]): 2 µg/mL (≈ 4.5 µM); MIC (Klebsiella pneumoniae [27]): 2 µg/mL; MIC (Klebsiella pneumoniae [40]): 2 µg/mL (≈ 4.5 µM); MIC (Klebsiella pneumoniae [28]): 4 µg/mL (≈ 9 µM); MIC (Klebsiella aerogenes [29]): 64 µg/mL (≈ 144 µM); MIC (Klebsiella pneumoniae [30]): 256 µg/mL; MIC (Klebsiella aerogenes [31]): 2 µg/mL; MIC (Klebsiella pneumoniae [32]): 2 µg/mL (≈ 4.5 µM); MIC (Klebsiella aerogenes [33]): 64 µg/mL (≈ 144 µM); MIC (Klebsiella aerogenes [34]): 4 µg/mL; MIC (Klebsiella aerogenes [35]): 128 µg/mL (≈ 288 µM); MIC (Klebsiella aerogenes [36]): 8 µg/mL; MIC (Klebsiella aerogenes [37]): 4 µg/mL; MIC (Klebsiella aerogenes [38]): 1 µg/mL (≈ 2.25 µM); MIC (Klebsiella aerogenes [39]): 8 µg/mL
